# System: Mtb-infected mouse lungs
# Assay: Genome-wide lung transcriptome (microarray, IPA network/GO analysis) of Mtb-infected mice
# Type: in vivo
# Details: TNF-a regulon network
structure (smiles),measurement,value
"CCOc1cc([C@@H](CS(C)(=O)=O)N2Cc3cccc(NC(=O)C4CC4)c3C2=O)ccc1OC [CC-11050, N-[2-[(1S)-1-(3-ethoxy-4-methoxyphenyl)-2-(methylsulfonyl)ethyl]-2,3-dihydro-3-oxo-1H-isoindol-4-yl]-(9Cl) cyclopropanecarboxamide]",ENTPD5 expression,0
same,ERCC1 expression,0
same,ERG expression,0
same,ESM1 expression,0
same,FABP1 expression,0
same,FABP4 expression,0
same,FBL expression,0
same,FBXO32 expression,0
same,FCER1G expression,0
same,FCER2 expression,0
same,FGF2 expression,1.266
same,FGF10 expression,0
same,FGF18 expression,0
same,FGFRL1 expression,0
same,FMO1 expression,0
same,FN1 expression,0
same,FNBP1 expression,0
same,FOXO4 expression,0
same,FPR1 expression,0
same,FUT4 expression,0
same,GAB1 expression,0
same,GBP2 expression,0
same,GCLM expression,0
same,GHR expression,0
same,GNAI1 expression,0
same,GNB4 expression,0
same,GNL1 expression,0
same,GOSR2 expression,0
same,GPD1 expression,0
same,GPR126 expression,0
same,GPR176 expression,0
same,GRIA1 expression,0
same,GRN expression,0
same,GSTM2 expression,0
same,GSTT1 expression,1.249
same,GUSB expression,0
same,Gbp2 expression,0
same,Gbp4 expression,0
same,Gbp6 (includes others) expression,0
same,Gsta4 expression,0
same,H2-Q4 expression,0
same,HAPLN1 expression,0
same,HERC1 expression,0
same,HES1 expression,0
same,HEXB expression,0
same,HIF1A expression,0
same,HIPK3 expression,0
same,HIVEP1 expression,0
same,HK2 expression,0
same,HK3 expression,0
same,HLA-B expression,0
same,HLA-C expression,0
same,HLA-DRA expression,0
same,HLA-E expression,0
same,HLA-F expression,0
same,HMGN2 expression,0
same,HPGD expression,0
same,HPGDS expression,0
same,HPRT1 expression,0
same,HSD3B2 expression,0
same,HSD11B1 expression,1.622
same,ID1 expression,1.521
same,IDH2 expression,0
same,IDO1 expression,0
same,IFIH1 expression,0
same,IFIT1B expression,0
same,IFNAR2 expression,0
same,IGFBP5 expression,0
same,IGFBP6 expression,0
same,IL1RN expression,0
same,IL2RA expression,0
same,IL10RA expression,0
same,IL17RD expression,0
same,IL18BP expression,0
same,IL21R expression,0
same,IL21 expression,0
same,INHBA expression,0
same,IRF1 expression,0
same,IRF5 expression,0
same,IRF7 expression,0
same,IRF8 expression,0
same,IRG1 expression,0
same,ISG15 expression,0
same,ITGA4 expression,0
same,ITGAL expression,0
same,ITGAM expression,0
same,ITGB2 expression,0
same,ITGB7 expression,0
same,Ifi204 (includes others) expression,0
same,KCNJ1 expression,0
same,KDR expression,0
same,KIF20A expression,0
same,KITLG expression,0
same,KLF7 expression,1.276
same,KLF10 expression,1.476
same,KRT23 expression,0
same,KYNU expression,0
same,LAMP3 expression,0
same,LCAT expression,0
same,LCN2 expression,0
same,LEP expression,0
same,LGALS12 expression,0
same,LITAF expression,0
same,LOC653486/SCGB1C1 expression,0
same,LOX expression,1.533
same,LPL expression,0
same,LRRC8C expression,0
same,LTB expression,0
same,LXN expression,0
same,LYVE1 expression,1.461
same,MAN1C1 expression,0
same,MAP2K3 expression,1.176
same,MAP4K4 expression,-1.132
same,MAPKAP1 expression,0
same,MARCKSL1 expression,0
same,MCL1 expression,0
same,MCM3 expression,0
same,MEFV expression,0
same,MEOX1 expression,0
same,MEOX2 expression,0
same,MMP7 expression,1.207
same,MMP8 expression,0
same,MMP13 expression,0
same,MMP16 expression,0
same,MMP28 expression,0
same,MPC1 expression,0
same,MSR1 expression,0
same,MUC4 expression,0
same,MVP expression,0
same,MYO9B expression,0
same,NAGLU expression,0
same,NAIP expression,0
same,NAMPT expression,0
same,NCAM1 expression,0
same,NCF2 expression,0
same,NCOA2 expression,0
same,NEDD9 expression,-1.086
same,NFATC1 expression,0
same,NFKB2 expression,0
same,NFKBIA expression,0
same,NFKBIE expression,0
same,NFKBIZ expression,-1.15
same,NFRKB expression,0
same,NME3 expression,1.1811
same,NNMT expression,0
same,NPM3 expression,0
same,NPPA expression,0
same,NR4A1 expression,0
same,NR4A3 expression,0
same,NRP1 expression,0
same,NTN1 expression,0
same,NUAK1 expression,0
same,NUAK2 expression,0
same,Nppb expression,0
same,OAS1 expression,0
same,OAS2 expression,0
same,OAS3 expression,0
same,OASL expression,0
same,OCLN expression,0
same,OGN expression,1.2
same,OLFML2B expression,0
same,OLR1 expression,0
same,P2RY6 expression,0
same,PAFAH2 expression,0
same,PC expression,0
same,PCBP2 expression,0
same,PCDH7 expression,0
same,PCK1 expression,0

# Reference: PMC4911353, “Pharmacologic Inhibition of Host Phosphodiesterase-4 Improves Isoniazid-Mediated Clearance of Mycobacterium tuberculosis” (Frontiers in Immunology, 2016)
